Values quoted from earlier work in US20230390254A1, “PHARMACEUTICAL COMPOSITIONS OF UBROGEPANT AND PROCESS FOR PREPARATION THEREOF” (Aurobindo Pharma Ltd, priority 2022, published 2023).
Read-outs that look alike come from different tables or passages of the source.

Assays:
[1] = disclosed in U.S. Pat. No. 10,117,836
[2] = not given; remark: listed apart in the source

C[C@@H]1[C@H](c2ccccc2)C[C@H](NC(=O)c2cnc3c(c2)C[C@@]2(C3)C(=O)Nc3ncccc32)C(=O)N1CC(F)(F)F [Ubrogepant, (3′S)—N-((3 S,5S,6R)-6-methyl-2-oxo-5-phenyl-1-(2,2,2trifluoroethyl)piperidin-3-yl)-2′-oxo-1′,2′,5,7 tetrahydrospiro[cyclopenta[b]pyridine-6,3′-pyrrolo[2,3b]pyridine]-3-carboxamide]
aqueous solubility [1]: poor aqueous solubility | solubility (in acetone): freely soluble | solubility (in acetonitrile): freely soluble | solubility (in ethanol): freely soluble | solubility (in methanol): freely soluble | solubility (in water): insoluble | solubility (BCS) [2]: low solubility
